Source: patent US12692249B2, “WDR5 inhibitors and modulators” (Vanderbilt University, priority 2019, dated 2026)
Where two headings read alike, the source gives them in different places.

How the values were obtained:
WDR5 = WDR5 (Homo sapiens, UniProt P61964); assay: TR-FRET competition binding assay, displacement of 10mer-Thr-FAM MLL peptide probe from His-tagged WDR5; settings: WDR5-His tag (residues 24-334) 2 nM; 10mer-Thr-FAM 150 nM; 60 min, room temperature; read-out: Ki for Inhibition of WDR5 by TR-FRET assay
[1] = test system: MV4:11 human cancer cell lines; assay: Cellular viability / anti-proliferative assay, CellTiter-Glo, 5 day protocol; type: cell-based; settings: Homo sapiens, MV4-11, 120 h, read-out: GI50 on cellular proliferation of MV4:11 human cancer cell lines
Procedure, shortened: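 Luminescent ATP-based viability (CellTiter-Glo) after a 5-day exposure gave GI50 via sigmoidal fitting, averaged over two or more replicates. Compounds spanned 22 two-fold steps down from 30 μM at 0.3% DMSO, on 200 MV-4-11 cells per well grown in IMDM plus 10% FBS.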

[2] = MV4:11 cells, 5 day incubation, CellTiter-Glo, mean of at least two replicates

`COc1cc(Br)c2nc(C)cc(N3CCc4c(cc(Cn5ccnc5)cc4-c4cn(C)nc4C(F)(F)F)C3=O)c2c1` [Example 101, 7-((1H-imidazol-1-yl)methyl)-2-(8-bromo-6-methoxy-2-methylquinolin-4-yl)-5-(1-methyl-3-(trifluoromethyl)-1H-pyrazol-4-yl)-3,4-dihydroisoquinolin-1(2H)-one] was tested. Which Ki (WDR5) did it give?
Its Ki is 0.023 nM.

What about the GI50 [1, 2] of the same molecule?
Its GI50 is under 20 nM.

What does the source list for `CCc1cc(-c2cncnc2)c2nccc(N3CCc4c(cc(Cn5ccnc5)cc4-c4cn(C)nc4C(F)(F)F)C3=O)c2c1` [Example 96, 7-((1H-Imidazol-1-yl)methyl)-2-(6-ethyl-8-(pyrimidin-5-yl)quinolin-4-yl)-5-(1-methyl-3-(trifluoromethyl)-1H-pyrazol-4-yl)-3,4-dihydroisoquinolin-1(2H)-one]?
Ki (WDR5): < 0.02 nM; GI50 [1, 2]: < 20 nM

`Cn1cc(-c2cc(Cn3ccnc3)cc3c2CCN([C@H]2CCOc4ncc(Cl)cc42)C3=O)c(C(F)(F)F)n1` [Example 72] was tested. Which Ki (WDR5) did it give?
The Ki was under 0.02 nM.

And the GI50 [1]?
Its GI50 is under 20 nM.

What does the source list for `CCc1cc(C(=O)NCC2CN(C(=O)C3CCOCC3)C2)c2nccc(N3CCc4c(cc(Cn5ccnc5)cc4-c4cn(C)nc4C(F)(F)F)C3=O)c2c1` [Example 233, 4-(7-((1H-Imidazol-1-yl)methyl)-5-(1-methyl-3-(trifluoromethyl)-1H-pyrazol-4-yl)-1-oxo-3,4-dihydroisoquinolin-2(1H)-yl)-6-ethyl-N-((1-(tetrahydro-2H-pyran-4-carbonyl)azetidin-3-yl)methyl)quinoline-8-carboxamide]?
Ki (WDR5): < 0.02 nM; GI50 [1, 2]: 26 nM

What does the source list for `CCc1cc(N)c2nccc(N3CCc4c(cc(Cn5ccnc5)cc4-c4cn(C)nc4C(F)(F)F)C3=O)c2c1` [Example 230, 7-((1H-Imidazol-1-yl)methyl)-2-(8-amino-6-ethylquinolin-4-yl)-5-(1-methyl-3-(trifluoromethyl)-1H-pyrazol-4-yl)-3,4-dihydroisoquinolin-1(2H)-one]?
Ki (WDR5): < 0.02 nM; GI50 [1]: 54 nM

Which results are given for `COCCNC(=O)c1cc(OC)cc2c(N3CCc4c(cc(Cn5ccnc5)cc4-c4cn(C)nc4C(F)(F)F)C3=O)ccnc12` [Example 49, 4-(7-((1H-Imidazol-1-yl)methyl)-5-(1-methyl-3-(trifluoromethyl)-1H-pyrazol-4-yl)-1-oxo-3,4-dihydroisoquinolin-2(1H)-yl)-6-methoxy-N-(2-methoxyethyl)quinoline-8-carboxamide]?
Ki (WDR5): < 0.02 nM; GI50 [1, 2]: 34 nM

Which Ki (WDR5) does the source give for `Cc1ccc2c(N3CCc4c(cc(Cn5ccnc5)cc4-c4cn(C)nc4C(F)(F)F)C3=O)cccc2n1` [Example 103, 7-((1H-Imidazol-1-yl)methyl)-5-(1-methyl-3-(trifluoromethyl)-1H-pyrazol-4-yl)-2-(2-methylquinolin-5-yl)-3,4-dihydroisoquinolin-1(2H)-one] here?
The Ki was 0.029 nM.

And the GI50 [1, 2]?
The GI50 was 718 nM.

`CCc1cc(C(=O)NCc2cnccn2)c2nccc(N3CCc4c(cc(Cn5ccnc5)cc4-c4cn(C)nc4C(F)(F)F)C3=O)c2c1` [Example 173, 4-(7-((1H-Imidazol-1-yl)methyl)-5-(1-methyl-3-(trifluoromethyl)-1H-pyrazol-4-yl)-1-oxo-3,4-dihydroisoquinolin-2(1H)-yl)-6-ethyl-N-(pyrazin-2-ylmethyl)quinoline-8-carboxamide] was tested. Which Ki (WDR5) did it give?
The Ki was under 0.02 nM.

And the GI50 [1, 2]?
Its GI50 is under 20 nM.

How did the Ki (WDR5) turn out when `Cc1nccn1Cc1cc2c(c(-c3cn(C)nc3C(F)(F)F)c1)CCN(C1CCOc3ccc(Br)cc31)C2=O` (stereo not shown) [Example 61, 2-(6-Bromochroman-4-yl)-7-((2-methyl-1H-imidazol-1-yl)methyl)-5-(1-methyl-3-(trifluoromethyl)-1H-pyrazol-4-yl)-3,4-dihydroisoquinolin-1(2H)-one] was run?
Its Ki is 0.052 nM.

And the GI50 [1, 2]?
Its GI50 is 31 nM.

How did the Ki (WDR5) turn out when `COc1cc(COC2CCN(C)CC2)c2nccc(N3CCc4c(cc(Cn5ccnc5)cc4-c4cn(C)nc4C(F)(F)F)C3=O)c2c1` [Example 169, 7-((1H-Imidazol-1-yl)methyl)-2-(6-methoxy-8-(((1-methylpiperidin-4-yl)oxy)methyl)quinolin-4-yl)-5-(1-methyl-3-(trifluoromethyl)-1H-pyrazol-4-yl)-3,4-dihydroisoquinolin-1(2H)-one] was run?
Its Ki is under 0.02 nM.

And the GI50 [1, 2]?
The GI50 was under 20 nM.

For `COc1cc(OC)c2cncc(N3CCc4c(cc(Cn5ccnc5)cc4-c4cn(C)nc4C(F)(F)F)C3=O)c2c1` [Example 122, 7-((1H-Imidazol-1-yl)methyl)-6′,8′-dimethoxy-5-(1-methyl-3-(trifluoromethyl)-1H-pyrazol-4-yl)-3,4-dihydro-1H-[2,4′-biisoquinolin]-1-one], which Ki (WDR5) is on record?
The Ki was 0.052 nM.

And the GI50 [1, 2]?
The GI50 was 27 nM.

How did the Ki (WDR5) turn out when `COc1cc(Cn2ccnc2)c2nccc(N3CCc4c(cc(Cn5ccnc5)cc4-c4cn(C)nc4C(F)(F)F)C3=O)c2c1` [Example 139, 7-((1H-imidazol-1-yl)methyl)-2-(8-((1H-imidazol-1-yl)methyl)-6-methoxyquinolin-4-yl)-5-(1-methyl-3-(trifluoromethyl)-1H-pyrazol-4-yl)-3,4-dihydroisoquinolin-1(2H)-one] was run?
Its Ki is under 0.02 nM.

What about the GI50 [1, 2] of the same molecule?
Its GI50 is under 20 nM.

Which Ki (WDR5) does the source give for `COc1ccc2c(Cl)ncc(N3CCc4c(cc(Cn5ccnc5)cc4-c4cn(C)nc4C(F)(F)F)C3=O)c2c1` [Example 21, 7-((1H-Imidazol-1-yl)methyl)-1′-chloro-6′-methoxy-5-(1-methyl-3-(trifluoromethyl)-1H-pyrazol-4-yl)-3,4-dihydro-1H-[2,4′-biisoquinolin]-1-one] here?
Its Ki is under 0.02 nM.

And the GI50 [1, 2]?
The GI50 was 23 nM.

Which results are given for `CCc1nc2cccc(N3CCc4c(cc(Cn5ccnc5)cc4-c4cn(C)nc4C(F)(F)F)C3=O)c2cc1C` [Example 119, 7-((1H-Imidazol-1-yl)methyl)-2-(2-ethyl-3-methylquinolin-5-yl)-5-(1-methyl-3-(trifluoromethyl)-1H-pyrazol-4-yl)-3,4-dihydroisoquinolin-1(2H)-one]?
Ki (WDR5): 0.057 nM; GI50 [1, 2]: 457 nM

Which results are given for `CCc1cc(COc2ccncc2)c2nccc(N3CCc4c(cc(Cn5ccnc5)cc4-c4cn(C)nc4C(F)(F)F)C3=O)c2c1` [Example 187, 7-((1H-Imidazol-1-yl)methyl)-2-(6-ethyl-8-((pyridin-4-yloxy)methyl)quinolin-4-yl)-5-(1-methyl-3-(trifluoromethyl)-1H-pyrazol-4-yl)-3,4-dihydroisoquinolin-1(2H)-one]?
Ki (WDR5): < 0.02 nM; GI50 [1, 2]: 43 nM

Which results are given for `CCc1cnc2cc(C)cc(N3CCc4c(cc(Cn5ccnc5)cc4-c4cn(C)nc4C(F)(F)F)C3=O)c2c1` [Example 129, 7-((1H-Imidazol-1-yl)methyl)-2-(3-ethyl-7-methylquinolin-5-yl)-5-(1-methyl-3-(trifluoromethyl)-1H-pyrazol-4-yl)-3,4-dihydroisoquinolin-1(2H)-one]?
Ki (WDR5): 0.029 nM; GI50 [1]: 35 nM

For `COc1ccc2nccc(N3CCc4c(cc(Cn5ccnc5C)cc4-c4cn(C)nc4C(F)(F)F)C3=O)c2c1` [Example 4, 2-(6-Methoxyquinolin-4-yl)-7-((2-methyl-1H-imidazol-1-yl)methyl)-5-(1-methyl-3-(trifluoromethyl)-1H-pyrazol-4-yl)-3,4-dihydroisoquinolin-1(2H)-one], which Ki (WDR5) is on record?
The Ki was under 0.02 nM.

What about the GI50 [1, 2] of the same molecule?
Its GI50 is under 20 nM.

Which results are given for `COc1cnc2c(c1)C(N1CCc3c(cc(Cn4ccnc4C)cc3-c3cn(C)nc3C(F)(F)F)C1=O)CCC2` (stereo not shown) [Example 65, 2-(3-Methoxy-5,6,7,8-tetrahydroquinolin-5-yl)-7-((2-methyl-1H-imidazol-1-yl)methyl)-5-(1-methyl-3-(trifluoromethyl)-1H-pyrazol-4-yl)-3,4-dihydroisoquinolin-1(2H)-one]?
Ki (WDR5): < 0.02 nM; GI50 [1, 2]: < 20 nM

For `COc1cc(C)cc2c(N3CCc4c(cc(Cn5ccnc5)cc4-c4cn(C)nc4C(F)(F)F)C3=O)ccnc12` [Example 19, 7-((1H-Imidazol-1-yl)methyl)-2-(8-methoxy-6-methylquinolin-4-yl)-5-(1-methyl-3-(trifluoromethyl)-1H-pyrazol-4-yl)-3,4-dihydroisoquinolin-1(2H)-one], which Ki (WDR5) is on record?
Its Ki is 0.02 nM.

What about the GI50 [1, 2] of the same molecule?
Its GI50 is 26 nM.

What does the source list for `Cc1ccc2cncc(N3CCc4c(cc(Cn5ccnc5)cc4-c4cn(C)nc4C(F)(F)F)C3=O)c2c1` [Example 16, 7-((1H-Imidazol-1-yl)methyl)-6′-methyl-5-(1-methyl-3-(trifluoromethyl)-1H-pyrazol-4-yl)-3,4-dihydro-1-[2,4′-biisoquinolin]-1-one]?
Ki (WDR5): 0.028 nM; GI50 [1, 2]: 42 nM

How did the Ki (WDR5) turn out when `CCc1cc2c(N3CCc4c(cc(Cn5ccnc5)cc4-c4cn(C)nc4C(F)(F)F)C3=O)cccc2nc1C` [Example 117, 7-((1H-Imidazol-1-yl)methyl)-2-(3-ethyl-2-methylquinolin-5-yl)-5-(1-methyl-3-(trifluoromethyl)-1H-pyrazol-4-yl)-3,4-dihydroisoquinolin-1(2H)-one] was run?
The Ki was 0.036 nM.

What about the GI50 [1] of the same molecule?
The GI50 was 64 nM.

Which Ki (WDR5) does the source give for `Cc1cc(N2CCN(C)C(=O)C2)c2cncc(N3CCc4c(cc(Cn5ccnc5)cc4-c4cn(C)nc4C(F)(F)F)C3=O)c2c1` [Example 112, 7-((1H-Imidazol-1-yl)methyl)-6′-methyl-5-(1-methyl-3-(trifluoromethyl)-1H-pyrazol-4-yl)-8′-(4-methyl-3-oxopiperazin-1-yl)-3,4-dihydro-1H-[2,4′-biisoquinolin]-1-one] here?
Its Ki is 0.037 nM.

And the GI50 [1, 2]?
Its GI50 is 23 nM.

How did the Ki (WDR5) turn out when `Cc1nccn1Cc1cc2c(c(-c3cn(C)nc3C(F)(F)F)c1)CCN(C1CCCc3ncccc31)C2=O` (stereo not shown) [Example 64, 7-((2-Methyl-1H-imidazol-1-yl)methyl)-5-(1-methyl-3-(trifluoromethyl)-1H-pyrazol-4-yl)-2-(5,6,7,8-tetrahydroquinolin-5-yl)-3,4-dihydroisoquinolin-1(2H)-one] was run?
Its Ki is 0.042 nM.

And the GI50 [1, 2]?
The GI50 was 284 nM.
